Assay results: publication PMC8512054 (Molecules, 2021)
Like-named read-outs stand apart in the source and are kept apart here.

What was measured:
MAO-B [1] = molecular target: T1, MAO-B (Homo sapiens, UniProt P27338); design: purchased Sigma-Aldrich; method as in PMID 32246471; conditions: competitive inhibitor; read-out: Ki for MAO-B (earlier study); cited from earlier work
T1 sequence (P27338 1-520): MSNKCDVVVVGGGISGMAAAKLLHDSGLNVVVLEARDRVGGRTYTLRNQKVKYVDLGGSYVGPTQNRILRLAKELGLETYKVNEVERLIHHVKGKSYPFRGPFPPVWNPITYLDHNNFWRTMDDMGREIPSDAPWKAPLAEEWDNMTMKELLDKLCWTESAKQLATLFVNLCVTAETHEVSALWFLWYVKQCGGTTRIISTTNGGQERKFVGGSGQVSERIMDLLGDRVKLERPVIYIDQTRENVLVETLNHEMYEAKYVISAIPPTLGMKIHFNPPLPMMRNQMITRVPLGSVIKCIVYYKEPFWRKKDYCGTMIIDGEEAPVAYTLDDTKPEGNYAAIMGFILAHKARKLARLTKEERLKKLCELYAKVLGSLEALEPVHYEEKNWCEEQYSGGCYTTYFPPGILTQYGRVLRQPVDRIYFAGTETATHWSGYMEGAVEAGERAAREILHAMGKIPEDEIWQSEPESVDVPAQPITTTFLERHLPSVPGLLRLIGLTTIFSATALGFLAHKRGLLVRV

[2] = BBB permeation by PAMPA method; assay type: in vitro ADME; conditions: for Prediction (BBB permeation): class from experimental Pe; for Effective permeability (Pe): read-out: Experimental Pe
Excerpt: The CNS bioavailability of the molecules was further ascertained by the PAMPA method.

[3] = design: method as in PMID 29532412; conditions: PAMPA-BBB; cited from earlier work
MAO-B [4] = molecular target: T1, MAO-B; assay: MAO-B enzyme-inhibition kinetics (Lineweaver–Burk and secondary plots); assay type: biochemical; design: purchased Sigma-Aldrich; conditions: for Mode of MAO-B inhibition: Lineweaver–Burk plots; for Ki: from secondary plot of Lineweaver–Burk slopes
Excerpt: The obtained results are represented in Figure 1.
Figure 1 Lineweaver–Burk plots for MAO-B inhibition by NEA1 and NEA3 (A,C), and their respective secondary plots (B,D) of the slopes vs. inhibitor concentrations.

MAO-B [5] = molecular target: T1, MAO-B; assay: MAO-B inhibitory assay (recombinant MAO-B, benzylamine substrate); conditions: for Selectivity index (SI) for MAO-B as compared with MAO-A: from the IC50 values of MAO-A and MAO-B; for remaining activity at 10 µM: read-out: % Residual Activity (at 10 µM) MAO-B
Experimental: (§1) MAO inhibitory assay was assessed in accordance with the previously standardized methods of assessing recombinant MAO-A and MAO-B by using the substrates (0.06 mM kynuramine and 0.3 mM benzylamine, respectively) [38, 39, 40]. […] The enzymes and chemicals were purchased from Sigma-Aldrich (St. Louis, MO, USA).
(§2) Initially, the inhibitory activities of the synthesized compounds were identified at a concentration of 10 μM against MAO-A, MAO-B, and BACE1. […] The obtained IC50 values thus compared were used to deduce the SI values.

BACE1 = BACE1 (Homo sapiens, UniProt P56817); assay: BACE1 activity assay kit (β-secretase, CS0010), fluorescence; conditions: for remaining activity at 10 µM: read-out: % Residual Activity (at 10 µM) BACE1
Sequence of BACE1 (P56817 46-501): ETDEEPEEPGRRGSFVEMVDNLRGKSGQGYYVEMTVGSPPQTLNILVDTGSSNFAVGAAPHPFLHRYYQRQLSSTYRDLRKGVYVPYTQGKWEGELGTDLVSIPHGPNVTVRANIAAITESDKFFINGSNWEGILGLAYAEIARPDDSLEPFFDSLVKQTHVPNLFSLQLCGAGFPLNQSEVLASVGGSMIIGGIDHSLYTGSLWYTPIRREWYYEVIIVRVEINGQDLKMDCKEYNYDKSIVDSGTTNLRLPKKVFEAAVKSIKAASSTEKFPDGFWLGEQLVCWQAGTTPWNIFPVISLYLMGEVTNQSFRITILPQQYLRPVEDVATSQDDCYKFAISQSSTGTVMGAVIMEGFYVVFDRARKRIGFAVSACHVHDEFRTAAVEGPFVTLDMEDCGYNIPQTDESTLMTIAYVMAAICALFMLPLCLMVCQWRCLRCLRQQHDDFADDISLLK
Experimental: as §1, §2

recombinant MAO-A = molecular target: T2, recombinant MAO-A (Homo sapiens, UniProt P21397); assay: MAO-A inhibitory assay (recombinant MAO-A, kynuramine substrate); conditions: for remaining activity at 10 µM: read-out: % Residual Activity (at 10 µM) MAO-A
T2 sequence (P21397 1-527): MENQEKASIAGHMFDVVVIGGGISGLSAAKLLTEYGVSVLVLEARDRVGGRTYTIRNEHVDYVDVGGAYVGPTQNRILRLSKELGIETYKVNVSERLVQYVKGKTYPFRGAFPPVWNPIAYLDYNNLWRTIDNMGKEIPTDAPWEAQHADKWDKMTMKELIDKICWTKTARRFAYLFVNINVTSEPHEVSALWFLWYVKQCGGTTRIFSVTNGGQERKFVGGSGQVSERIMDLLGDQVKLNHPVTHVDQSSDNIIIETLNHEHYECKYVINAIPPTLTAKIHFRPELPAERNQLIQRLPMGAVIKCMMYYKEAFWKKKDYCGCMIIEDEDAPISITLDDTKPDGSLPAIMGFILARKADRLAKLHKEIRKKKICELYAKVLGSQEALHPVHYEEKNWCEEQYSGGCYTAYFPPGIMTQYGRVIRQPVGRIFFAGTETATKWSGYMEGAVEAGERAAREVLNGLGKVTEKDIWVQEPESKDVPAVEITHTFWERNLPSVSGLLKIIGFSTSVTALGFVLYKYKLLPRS
Experimental: as §1, §2

MAO-B [6] = molecular target: T1, MAO-B; assay: MAO-B inhibitor-reversibility analysis by dialysis; assay type: biochemical; design: purchased Sigma-Aldrich; conditions: for Reversibility of MAO-B inhibition: dialysis method; for Relative MAO-B activity, dialyzed (AD) / Relative MAO-B activity, undialyzed (AU): ~2 × IC50 (NEA1 0.032, NEA3 0.020, lazabemide 0.22, pargyline 0.28 μM); for Relative MAO-B activity, dialyzed (AD): dialysis 6 h; for Relative MAO-B activity, undialyzed (AU): preincubated 30 min
Experimental: The reversibility of MAO-B inhibition by NEA1 and NEA3 was evaluated using a standardized dialysis method. […] The activities in dialyzed (AD) and undialyzed (AU) samples were compared and reversibility patterns were determined.
Dialysis was performed for 6 h with a buffer change after 3 h with duplicate experiments.

| Compound | Effective permeability (Pe) [2] [×10⁻⁶ cm/s] | Mode of MAO-B inhibition (MAO-B [4]) | Ki (MAO-B [4]) [nM] | IC50 (MAO-B [5]) [nM] | Selectivity index (SI) for MAO-B as compared with MAO-A (MAO-B [5]) | remaining activity at 10 µM (MAO-B [5]) [%] | IC50 (BACE1) [nM] | remaining activity at 10 µM (BACE1) [%] | IC50 (recombinant MAO-A) [nM] | remaining activity at 10 µM (recombinant MAO-A) [%] | Reversibility of MAO-B inhibition (MAO-B [6]) | Relative MAO-B activity, dialyzed (AD) (MAO-B [6]) [%] | Relative MAO-B activity, undialyzed (AU) (MAO-B [6]) [%] | melting point [°C] | Ki (MAO-B [1]) [nM] | Prediction (BBB permeation) [2] | Bibliography Pe [3] [×10⁻⁶ cm/s] | Experimental Pe [2] |
| --- | --- | --- | --- | --- | --- | --- | --- | --- | --- | --- | --- | --- | --- | --- | --- | --- | --- | --- |
| C=CC(=O)Nc1cccc([N+](=O)[O-])c1 [AD9, N-(3-nitrophenyl)prop-2 enamide] | – | – | – | – | – | – | – | – | – | – | – | – | – | – | 39 ± 5 | – | – | – |
| NCCc1ccc(O)c(O)c1 [Dopamine, reference compound] | 0.26 ± 0.04 | – | – | – | – | – | – | – | – | – | – | – | – | – | – | CNS− (CNS− (low BBB permeation predicted: Pe (10^−6 cm/s) < 2.00)) | 0.2 | – |
| CCn1cc(C(=O)O)c(=O)c2cc(F)c(N3CCNC(C)C3)c(F)c21 (stereo not drawn) [Lomefloxacin, reference compound] | 1.31 ± 0.51 | – | – | – | – | – | – | – | – | – | – | – | – | – | – | CNS− (CNS− (low BBB permeation predicted: Pe (10^−6 cm/s) < 2.00)) | – | – |
| CN1C(C(=O)Nc2ccccn2)=C(O)c2ccccc2S1(=O)=O [Piroxicam, reference compound] | – | – | – | – | – | – | – | – | – | – | – | – | – | – | – | CNS± (CNS± (BBB permeation uncertain: Pe (10^−6 cm/s) from 2.00 to 4.00)) | 2.5 | 2.37 ± 0.33 ×10^−6 cm/s |

More lines, main results first:

| Effective permeability (Pe) [2] [×10⁻⁶ cm/s] | Mode of MAO-B inhibition (MAO-B [4]) | Ki (MAO-B [4]) [nM] | IC50 (MAO-B [5]) [nM] | Selectivity index (SI) for MAO-B as compared with MAO-A (MAO-B [5]) | remaining activity at 10 µM (MAO-B [5]) [%] | IC50 (BACE1) [nM] | remaining activity at 10 µM (BACE1) [%] | IC50 (recombinant MAO-A) [nM] | remaining activity at 10 µM (recombinant MAO-A) [%] | Reversibility of MAO-B inhibition (MAO-B [6]) | Relative MAO-B activity, dialyzed (AD) (MAO-B [6]) [%] | Relative MAO-B activity, undialyzed (AU) (MAO-B [6]) [%] | melting point [°C] | Compound | Ki (MAO-B [1]) [nM] | Prediction (BBB permeation) [2] | Bibliography Pe [3] [×10⁻⁶ cm/s] | Experimental Pe [2] |
| --- | --- | --- | --- | --- | --- | --- | --- | --- | --- | --- | --- | --- | --- | --- | --- | --- | --- | --- |
| 14.4 ± 0.35 | competitive | 13 ± 5 | 16 ± 1 | >2500.0 | 3.88 ± 0.6 | 8210 ± 30 | 34.9 ± 0.5 | > 40000 | 91.9 ± 5.9 | reversible | 79.5 | 29.2 | – | O=C(C=Cc1ccc([N+](=O)[O-])cc1)Nc1ccccc1 [NEA1, 3-(4-Nitrophenyl)-N-phenylacrylamide] | – | CNS+ (CNS+ (high BBB permeation predicted: Pe (10^−6 cm/s) > 4.00)) | – | – |
| 13.5 ± 0.26 | – | – | 5280 ± 90 | >7.58 | 35.8 ± 6.2 | – | 88.1 ± 0.3 | > 40000 | 95 ± 0.5 | – | – | – | 224 to 226 | O=C(C=Cc1ccc([N+](=O)[O-])cc1)Nc1ccc(Cl)cc1 [NEA2, N-(4-Chlorophenyl)-3-(4-nitrophenyl)acrylamide] | – | CNS+ (CNS+ (high BBB permeation predicted: Pe (10^−6 cm/s) > 4.00)) | – | – |
| 16.4 ± 0.17 | competitive | 4.9 ± 0.2 | 9.2 ± 0.3 | 1652.2 | 3.04 ± 0.5 | 8020 ± 130 | 34.4 ± 0.2 | 15200 ± 600 | 61.9 ± 0.4 | reversible | 79.5 | 32.8 | 208 to 210 | O=C(C=Cc1ccc([N+](=O)[O-])cc1)Nc1ccc(F)cc1 [NEA3, N-(4-Fluorophenyl)-3-(4-nitrophenyl)acrylamide] | – | CNS+ (CNS+ (high BBB permeation predicted: Pe (10^−6 cm/s) > 4.00)) | – | – |
| 15.5 ± 0.62 | – | – | 74 ± 20 | >540.5 | 9.52 ± 3.5 | – | 61.2 ± 3 | > 40000 | 85.6 ± 1.7 | – | – | – | 166 to 168 | O=C(C=Cc1ccc([N+](=O)[O-])cc1)NC1CCCCC1 [NEA4, N-Cyclohexyl-3-(4-nitrophenyl)acrylamide] | – | CNS+ (CNS+ (high BBB permeation predicted: Pe (10^−6 cm/s) > 4.00)) | – | – |
| 15.5 ± 0.44 | – | – | 38 ± 3 | >1052.6 | 8.67 ± 2.3 | 17700 ± 1700 | 44 ± 0.2 | > 40000 | 83.5 ± 1.3 | – | – | – | 200 to 203 | Cc1ccccc1NC(=O)/C=C/c1ccc([N+](=O)[O-])cc1 [NEA5, 3-(4-Nitrophenyl)-N-(O-tolyl)acrylamide] | – | CNS+ (CNS+ (high BBB permeation predicted: Pe (10^−6 cm/s) > 4.00)) | – | – |
